In patent US7745465B2, “Method of enhancing cellular production of molecular chaperone, hydroxylamine derivatives useful for enhancing the chaperone production and the preparation thereof” (CytRx Corporation, priority 1995, dated 2010):

Assays:
Hsp72 [1] = test: Heat stress induced hsp72 expression in rat testicular explant; format: cell-based; conditions: 10^−5 M, 15 min. before 43° C. 30 min.
Protocol: Testis of CFY rats weighing of 200 g were removed in sterile conditions and the released testicular tubuli were suspended in 10% fetal bovine serum containing MEM culture medium in that way that five ml suspension contained 50-100 mg tissue. The explants were incubated in 5% CO2 containing humidified air at 37° C. for one hour, then the cultures were treated with 10^−5 M concentration of the tested compounds. After a further incubation for 15 min. at 37° C., explants were exposed to heat shock at 43° C. for 30 min. The amount of the induced hsp72 was measured after a further 6 hours incubation at 37° C.

HSP72 [2] = test: Heat stress induced HSP72 production in 3T3 cells; format: cell-based, mouse; conditions: 10^−5 M
Protocol: From the applied cells the 3T3 and L-929 mouse fibroblasts were cultured in MEM medium and grew in monolayer, the U-937 human leukemia cells were maintained in RPMI-1640 medium, in suspension culture, while the HeLa human epithelial cells were cultured in DMEM medium and in monolayer form. Cell cultures were maintained as described in example 6.2 (a) with the difference that cells were cultured in the above mentioned culture mediums.
Experiments were carried out applying stress before and after the drug treatment. Stress was provoked by heat, by chemical agent, HgCl2 treatment. The test compounds were applied in the treatments at the 10^−5 M concentration.
The experiments on 3T3 cell applying heat stress were performed as described in the 6.2. (c) point of example 6, with the difference that stress was induced by a 30 min. exposure at 43° C. temperature and treatment with the test compounds was performed 15 min. before or 100 min. after the heat stress.
Immunodetection was carried out using the HSP72 specific SPA 810 (StressGene) primary and the horse-radish peroxidase conjugated A9044 (Sigma) secondary antibodies. Densitometric evaluation was performed by a LKB Ultrascan XL densitometer.

Male Sprague-Dawley rats = test: Protection against cardiac ischaemia: survival after 5 minutes coronary occlusion and reperfusion; format: in vivo, rat; conditions: i.v. 1 mg/kgbw, 5 min. before the occlusion; non-treated control 10
Protocol: Male Sprague-Dawley rats (380-450 g b.w.) were anaesthetized with sodiumpentobarbital (Nembutal 60 mg/kg body weight, i.p.) and artificially ventilated with room air (2 ml/100 g; 54 stroke/minutes) via tracheotomy. The right carotid artery was catheterized and connected to a pressure transducer (BPR-01, Stoelting) for the measurement of systemic arterial blood pressure (BP) by means of a preamplifier (Hg-02, Experimetria). Hydroxylamine derivatives disclosed in Example 5 were administered via the venous cannule to jugular vein (i.v.) and orally (p.o.). Heart rate (HR) was measured by a cardiotachometer (HR-01, Experimetria). The electrocardiogram (ECG standard lead II) was recorded on a devices recorder (MR-12, Medicor) by means of subcutaneous steel needles electrodes. The chest was opened by a left thoracotomy and the heart was exteriorized by a gentle pressure on the right side of the rib cage. A 4-0 silk suture was quickly placed under the main left coronary artery as described by Selye et al. (1960). The heart was carefully replaced in the chest and the animal left to recover. Rectal temperature was monitored and kept constant at 37 C. The experimental protocol was initiated with a 15 minute stabilization period during which the observation of a sustained blood pressure less than 70 mmHg and or the occurrence of anhythmia led to exclusion. Myocardial ischemia was induced with coronary occlusion for 5 minutes and reperfusion allowed for 10 minutes.
During the entire experiment BP, HR and ECG were continuously registered on a multiscriptor (R61-6CH, Medicor). Hydroxylamine derivatives, the tautomeric forms of which are represented by structures (I) and (II), were administered 5 to 60 minutes before the occlusion after i.v. and p.o. treatment, respectively. […]
The mean duration of ventricular tachycardia (VT) and/or ventricular fibrillation (VF) during the first 3 minutes of reperfusion was analyzed by one-way analysis of variance. The incidence of VF was analyzed using a chi-square test. […] The haemodynamic variables were analyzed using Student's “t”-test. The critical level of significance was set at p<0.05. All results were expressed as a means±S.E.M. Drugs were administered i.v. in a dose of 1 mg/kgbw 5 min. before the occlusion.
The hydroxylamine derivatives that are found to be particularly advantageous for protecting an animal against ischemic/reperfusion injury are listed below. Survival (%) indicates the percent of animals survived the effects of 5 minutes coronary occlusion.

[3] = treatment 15 min. before 30 min. 43° C. heat stress
[4] = treatment 100 min. after 30 min. 43° C. heat stress

melting point [°C] | Compound | Level of hsp72 relative to the stress exposed control (Hsp72 [1]) | HSP72 level relative to the stress exposed control (HSP72 [2]; [3]) | other results
147 to 149.5 | Cl.OC(CNC1CCCCC1)CON=C(Cl)c1cccc(C(F)(F)F)c1 (centres unmarked) |  |  | 
168 to 172 | Cl.OC(CON=C(Cl)c1nccc2ccccc12)CN1CCCCC1 (centres unmarked) |  |  | 
91 to 94 | Cl.N=C(NOCC(CN1CCCCC1)OC(=O)c1ccccc1Cl)c1cccnc1 (centres unmarked) |  |  | 
116 to 119 | Cl.N=C(NOCCCN1CCCCC1)c1cccc(C(F)(F)F)c1 |  |  | 
207 to 209 | COc1ccc(CC(=N)NOCCCN2CCCCC2)cc1OC.Cl.Cl |  |  | 
127 to 130 | CN1CCN(CCCONC(=N)c2cccnc2)CC1.Cl |  |  | 
158 to 162 | Cl.N=C(NOCCCN1CCCCC1)c1cccc([N+](=O)[O-])c1 |  |  | 
207 to 209 | Cl.Cl.N=C(NOCCCN1CCCCC1)c1ccccc1 |  |  | 
184 to 189 | Cl.Cl.N=C(NOCC(O)CN1CCCCC1)c1ccc([N+](=O)[O-])cc1 (centres unmarked) |  |  | 
157 to 170 | Cl.Cl.N=C(NOCC(O)CN1CCCCC1)c1cccs1 (centres unmarked) |  |  | 
200 to 208 | Cl.Cl.N=C(NOCC(O)CN1CCCCC1)c1ccccc1[N+](=O)[O-] (centres unmarked) |  |  | 
130 to 134 | Cl.OC(CONC(=NC1CCCCC1)c1cccnc1)CN1CCCCC1 (centres unmarked) |  |  | 
180 to 182 | Cl.O=[N+]([O-])c1ccc(C(Cl)=NOCC(O)CN2CCCCC2)cc1 (centres unmarked) |  |  | 
 | 5,6-dihydro-3-(4-chloro-phenyl)-5-[N-methyl-piperidinium-1-yl]-methyl-4H-1,2,4-oxadiazine iodide | + (21-50%) | ++ (51-100%) | 
 | CC(=NOCC(O)CNC(C)(C)C)c1cccc(C(F)(F)F)c1.CC(=O)O (centres unmarked) [1-{[3-(t-butylamino)-2-hydroxy-propoxy]-imino}-1-(m-trifluoromethyl-phenyl)-ethane acetate] | + (21-50%) | +++ (>100%) | 
 | CCN(CC)CC1CON=C(c2cccnc2)O1.Cl (centres unmarked) [3-(3-piridyl)-5-diethylaminomethyl-5,6-dihydro-6H-1,4,2-dioxazine hydrochloride] | + + | + (21-50%) | 

melting point [°C] | Compound | Level of hsp72 relative to the stress exposed control (Hsp72 [1]) | HSP72 level relative to the stress exposed control (HSP72 [2]; [3]) | other results
 | CC(C)(C)NC1CON=C(c2cccnc2)O1 (centres unmarked) [3-(3-piridyl)-5-t-butylamino-5,6-dihydro-6H-1,4,2-dioxazine] | 0 (0 indicates that the treatment altered by ±20% the stress induced hsp72 level in the cells) | + (21-50%) | 
 | Cl.O=[N+]([O-])c1cccc(C(Cl)=NOCC(O)CN2CCCCC2)c1 (centres unmarked) [Example 4, N-[2-hydroxy-3-(1-piperidinyl)propoxy]-3-nitro-benzenecarboximidoyl chloride monohydrochloride] | + (21-50%) |  | Survival (%) (Male Sprague-Dawley rats): 50%
 | Cl.O=[N+]([O-])c1ccccc1C(Cl)=NOCC(O)CN1CCCCC1 (centres unmarked) [Example 6, N-[2-hydroxy-3-(1-piperidinyl)propoxy]-2-nitro-benzenecarboximidoyl chloride monohydrochloride] | + + | +++ (>100%) | Survival (%) (Male Sprague-Dawley rats): 100%; HSP72 level relative to the stress exposed control (HSP72 [2]; [4]): 0 (0 indicates that the treatment altered by ±20% the stress induced hsp72 level in the cells)
 | CC(C)(C)NCC(O)CON=C(Cl)c1cccc(C(F)(F)F)c1.Cl (centres unmarked) [Example 9, N-[3-[(1,1-Dimethylethyl)amino]-2-hydroxypropoxy]-3-trifluoromethylbenzene-carboximidoyl chloride monohydrochloride] | + (21-50%) |  | Survival (%) (Male Sprague-Dawley rats): 100%
 | CCCCCCCCCCCCCCCC(=O)OC(CONC(=N)c1cccnc1)CN1CCCCC1.Cl (centres unmarked) [Example 22, N-[2-palmitoyloxy-3-(1-piperidinyl)propoxy]-3-pyridinecarboximidamide monohydrochloride] | 0 (0 indicates that the treatment altered by ±20% the stress induced hsp72 level in the cells) | +++ (>100%) | Survival (%) (Male Sprague-Dawley rats): 100%; HSP72 level relative to the stress exposed control (HSP72 [2]; [4]): + (21-50%)
 | CC(=O)Nc1ccc(C(N)=NOCC(O)CN2CCCCC2)cc1.Cl (centres unmarked) [Example 39] | 0 (0 indicates that the treatment altered by ±20% the stress induced hsp72 level in the cells) |  | Survival (%) (Male Sprague-Dawley rats): 60%
 | Cl.Cl.N=C(NOCC(O)CN1CCCCC1)c1nccc2ccccc12 (centres unmarked) [Example 46, N-[2-hydroxy-3-(1-piperidinyl)propoxy]-1-isoquinolinecarboximidoyl dihydrochloride] | + + + |  | 
 | CCN(CC)C(=NOCC(O)CN1CCCCC1)c1cccnc1.Cl (centres unmarked) [Example 51] |  | +++ (>100%) | Survival (%) (Male Sprague-Dawley rats): 75%
 | O=C(NOCC(O)CN1CCCCC1)c1cccc2ccccc12 (centres unmarked) [Example 54, N-[2-hydroxy-3-(1-piperidinyl)propoxy]naphthalene-1-carboxamide] |  | +++ (>100%) | Survival (%) (Male Sprague-Dawley rats): 80%; HSP72 level relative to the stress exposed control (HSP72 [2]; [4]): ++ (51-100%)
 | CCCCCCNC(=O)NOCC(O)CN1CCCCC1 (centres unmarked) [Example 58, N-hexyl-N′-[2-hydroxy-3-(1-piperidinyl)propoxy]-urea] | 0 (0 indicates that the treatment altered by ±20% the stress induced hsp72 level in the cells) |  | HSP72 level relative to the stress exposed control (HSP72 [2]; [4]): +++ (>100%)
 | CCCCCCNC(=O)NOCCCN1CCCCC1 [Example 61, N-hexyl-N′-[3-(1-piperidinyl)propoxy]-urea] | 0 (0 indicates that the treatment altered by ±20% the stress induced hsp72 level in the cells) | ++ (51-100%) | 
 | O=C(O)/C=C\C(=O)O.O[C@@H](CON=C(Cl)c1cccnc1)CN1CCCCC1 [Example 77, /R/(+)-N-[2-hydroxyl-3-(1-piperidinyl)propoxy]-3-pyridinecarboximidoyl chloride (Z)-2-butenedioate (1:1)] |  | +++ (>100%) | Survival (%) (Male Sprague-Dawley rats): 67%
 | Cl.Cl.ClC(=NOCCCN1CCCCC1)c1cccnc1 [Example 78, N-(3-piperidino-1-propoxy)-3-pyridinecarboximidoyl chloride dihydrochloride] | + + | +++ (>100%) | Survival (%) (Male Sprague-Dawley rats): 100%
 | Cl.ClC(=NOCCCN1CCCCC1)c1cccs1 [N-[3-(1-piperidinyl)-propoxy]-tiophene-2-carboximidoyl-chloride-hydrochloride] | + + |  | 
 | CN(OCCCN1CCCCC1)C(=O)c1ccccc1.Cl [N-methyl-N-[3-(1-piperidinyl)-propoxy]-benzamide hydrochloride] | + (21-50%) | + (21-50%) | 
 | CCN(CC)CCCON=C(Cl)c1cccnc1.Cl [O-(3-diethylamino-propoxy)-3-pyridine-carboximidoyl-chloride hydrochloride] | 0 (0 indicates that the treatment altered by ±20% the stress induced hsp72 level in the cells) | +++ (>100%) | 

Compound | melting point [°C] | Level of hsp72 relative to the stress exposed control (Hsp72 [1]) | HSP72 level relative to the stress exposed control (HSP72 [2]; [3]) | other results
N=C(NOCC(CN1CCCCC1)OC(=O)c1ccco1)c1cccnc1.O=C(O)/C=C\C(=O)O (centres unmarked) | 167 to 171.5 |  |  | 
